Experimental data reported in paper PMC8126888 (RSC Medicinal Chemistry, 2020).
Where two headings read alike, the source gives them in different places.

Columns and labels:
[1] = tested on: primary peritoneal mouse macrophages (PMM); experiment: cells; conditions: Macrophage, read-out: PMM IC50
physchem = conditions: HPLC, Ascentis Express RP Amide column, pH 7.4, eLogD, experimental
in vitro [2] = conditions: human, THP-1 cells differentiated with PMA
in vitro [3] = conditions: human
in vitro [4] = conditions: human, HFF-1 cells
in vitro [5] = conditions: human, HepG2 cells
[6] = tested on: Leishmania infantum MHOM/MA(BE)/67/ITMAP263 intracellular amastigotes; experiment: microbe, parasite or virus in culture; conditions: Macrophage, in Mus musculus
[7] = tested on: Leishmania infantum (MHOM/MA/67/ITMAP-263) intracellular amastigotes in THP-1; experiment: microbe, parasite or virus in culture; conditions: THP-1, read-out: L. infantum MHOM/MA/67/ITMAP263 intracellular amastigotes THP-1 cells IC50
[8] = tested on: Trypanosoma cruzi, Tulahuen CL2, beta-galactosidase strain; experiment: microbe, parasite or virus in culture; conditions: MRC5, read-out: T. cruzi Tulahuen C4 (LacZ) IC50
in vitro [9] = conditions: human, microsomes, pH 7.4, HLM CLint, human liver microsomes
in vitro [10] = conditions: mouse, microsomes, pH 7.4, MLM CLint, mouse liver microsomes
in vitro [11] = conditions: PAMPA
[12] = read-out: L. Inf. pIC50, L. infantum intracellular amastigotes (converted)
[13] = read-out: L. infantum MHOM/MA(BE)/67/ITMAP263 intracellular amastigotes IC50, intracellular amastigotes

Structure (SMILES)	IC50 [1] [µM]	chromatographic logD (physchem)	CC50 at 120 h (in vitro [2]) [µM]	CC50 at 3 days (in vitro [3]) [µM]	CC50 (in vitro [4]) [µM]	CC50 (in vitro [5]) [µM]	IC50 [6, 12] [µM]	IC50 [6, 13] [µM]	IC50 [7] [µM]	IC50 [8] [µM]	microsomal CLint at 0.5 μM (in vitro [9]) [µL/min/mg]	microsomal CLint at 0.5 μM (in vitro [10]) [µL/min/mg]	Papp (in vitro [11]) [nm/s]
O=S1(=O)c2ccccc2[C@H](O)[C@@H](Cc2ccccc2)N1Cc1ccccc1 [DNDI0003578378]	> 64	4.2	39.7	> 64	> 64	63.9	8.91	8.88	19.5	7.67			
O=S1(=O)c2ccccc2[C@H](O)[C@H](Cc2ccccc2)N1Cc1ccccc1 [DNDI0003578379]	> 64	3.9	39.4	29.7	27	> 64	13.5	13.5	12.1	6.7			
COCCN(Cc1ccccc1)S(=O)(=O)c1c(OC)ccc(Cl)c1[S+](C)[O-] (centres unmarked) [DNDI0003578380]	> 64	2.9	> 64	> 64	> 64	> 64	26.9	26.7	> 64	> 64	85	286	176
COCCN(Cc1ccccc1)S(=O)(=O)c1c(OC)ccc(Cl)c1S(C)(=O)=O [DNDI0003578381]	> 64	2.6	> 64	> 64	> 64	> 64	51.3	50.8	> 64	> 64	51	176	146
COc1ccc([S+](C)[O-])cc1S(=O)(=O)N(Cc1ccccc1)Cc1ccccc1 (centres unmarked) [DNDI0003578382]	> 64	3.6	> 64	21.3	> 64	> 64	0.589	0.59	11.5	16.9	125	397	140
C[S+]([O-])c1c(Cl)ccc2c1S(=O)(=O)N(Cc1ccccc1)CCO2 (centres unmarked) [DNDI0003578383]	> 64	3	> 64	> 64	> 64	> 64	47.9	47.9	> 64	29.3	33	423	220
CCCN(Cc1ccc(F)cc1)S(=O)(=O)c1cc([S+](C)[O-])ccc1OC (centres unmarked) [DNDI0003578384]	> 64	3.1	> 64	> 64	> 64	> 64	11	11	> 64	38.5	67	437	186
COc1ccc(S(N)(=O)=O)cc1S(=O)(=O)N(Cc1ccccc1)Cc1ccccc1 [DNDI0003578385]	> 64	3.5	> 64	13.3	22.2	> 64	0.562	0.56	5.75	4.66	58	366	37.6
